# Test results published in US8188148B2, “Substituted 1,3-diphenylpropane derivatives, preparations and uses thereof” (Genfit, priority 2006, dated 2012).
# Key:
# db/db mouse = test: In vivo evaluation on db/db mouse: body weight, glycemia, insulinemia, plasma lipids; details: 50 mpk per os, 28 days
# Method: The effect of the compounds according to the invention is evaluated in vivo on the db/db mouse by measuring the body weight evolution, the glucose levels, the insulin levels, the plasma total cholesterol and triglyceride levels, and by analyzing the distribution of cholesterol in different plasma lipoprotein fractions, after 28 days of a per os treatment with compounds according to the invention.
# Female db/db mice were kept on a 12 hour/12 hour light/dark cycle at a constant temperature of 20±3° C. After a one week acclimatization period, the mice were weighed and divided into groups of 8 animals selected so as to render uniform the distribution of their body weights and their plasma lipid rates, determined before the experiment. The tested compounds were suspended in carboxymethylcellulose (Sigma C4888) and administered intra-gastric tube feeding once a day for 28 days at the chosen dose. The animals had free access to food and water (standard diet). Taking of food and weight gain are recorded throughout the experiment. At the end of the experiment, the animals were anesthetized after a 4 hour fast, a blood sample was taken using (EDTA) anticoagulant, then the mice were weighed and euthanized. The plasma was separated by centrifugation at 3000 rotations/minute for 20 minutes. The samples were kept at +4° C. The hepatic tissue and skeletal muscle tissue samples were taken and frozen immediately in liquid nitrogen then conserved at −80° C. for later analysis.
# Murine plasma glucose is measured out according to an enzyme-colorimetric method using a Glucose RTU kit (Biomérieux). Glucose is transformed into gluconic acid under the action of glucose oxidase; the reaction releases hydrogen peroxide. Hydrogen peroxide is measured according to the Trinder reaction which, under the action of a peroxidase and in the presence of phenol and amino-4-antipyrine, produces water and a colored product, quinoneimine. The color intensity, due to the quinoneimine, is proportional to the amount of glucose present in the sample.
# Murine insulin is measured using ELISA method (using the INSKR020 kit from provider Crystal chem.). A microplate is coated with a mouse anti-insulin antibody. Then, the serum to be assayed for insulin is placed onto the plate. A guinea pig anti-insulin antibody is used to recognize the complex formed by the mouse insulin and the anti-insulin monoclonal antibody. Finally an anti-guinea pig antibody labeled with peroxidase is added and bind to the guinea pig anti-insulin antibody. The colorimetric reaction is performed by adding an OPD (ortho phenyl diamine) enzyme substrate. The intensity of the color is proportional to the amount of insulin present in the sample.
# Plasma lipid concentrations (total cholesterol and triglycerides) are measured by enzymatic assays (bioMérieux-Lyon-France) according to the provider's recommendations.
# The different lipid fractions (VLDL, LDL, HDL) in the plasma were separated using gel-filtration chromatography. Cholesterol concentrations were then measured for each fraction by enzymatic assays (bioMérieux-Lyon-France) according to the provider's recommendations.
# [1] = system: PPARs target genes (PDK4, UCP2); test: Hepatic and skeletal muscle gene expression by quantitative RT-PCR in db/db mouse; assay type: in vivo; details: 50 mpk, 28 days
# Method: The effectiveness of the compounds according to the invention is also evaluated by measuring, in the hepatic and muscular (skeletal) tissues, the expression of genes involved in lipid and/or glucid metabolism and in energy dissipation. Each level of gene expression is normalized regarding the expression level of the reference gene 36B4 in the hepatic tissue, or regarding the expression level of the reference gene 18S in the gastrocnemius skeletal muscle. The induction factor, i.e. the ratio between the relative signal (induced by the compound according to the invention) and the average of the relative values obtained with the control group, is then calculated. The higher the induction factor is, the more the greater the compound promotes gene expression. The final result is represented as the average of the induction values obtained with each experimental group. • FIG. 4-8: Expression of PDK4 in the hepatic tissue of the db/db mouse, after 28 days of treatment with compound 1 and compound 3, administered at 50 mpk • FIG. 4-9: Expression of UCP2 (uncoupling protein 2) in the skeletal muscle tissue of the db/db mouse, after 28 days of treatment with compound 1 and compound 3, administered at 50 mpk
# Total RNA was extracted from liver fragments by using a NucleoSpin® 96 RNA kit (Macherey Nagel, Hoerdt, France) according to the manufacturer's instructions.
# Total RNA was extracted from gastrocnemius skeletal muscle fragments by using a RNeasy® Fibrous Tissue kit (Qiagen) according to the manufacturer's instructions.
# 1 μg of total RNA (quantified by spectrophotometry) was then reverse-transcripted into complementary DNA by means of a 1 hour reaction at 37° C. in a total volume of 20 μl containing a 1× buffer (Sigma), 1.5 mM of DTT, 0.18 mM of dNTPs (Promega), 200 ng of pdN6 (Amersham), 30 U of RNase inhibitor (Sigma), and 1 μl of MMLV-RT (Sigma).
# The PCR quantitative experiments were carried out using the MyiQ Single-Color Real-Time PCR Detection System (Biorad, Marnes-la-Coquette, France) and were performed using the iQ SYBR Green Supermix kit according to the provider's recommendations, in 96-well plates in 5 μl of a diluted reverse-transcription solution at a hybridization temperature of 55° C. The specific primer pairs of the genes being studied were used:
# The amount of fluorescence emitted is directly proportional to the amount of complementary DNA present at the beginning of the reaction and amplified during the PCR. For each target studied, a range of solutions is performed with successive dilutions of mixtures of a few microliters of different reverse-transcription solutions. The relative levels of expression of each target are thus determined by using efficiency curves obtained with the points relative to the range of PCR solutions. […]
# THP-1 human monocytes = test: Secretion of MCP1 by THP-1 monocytes stimulated with PMA; assay type: cell-based; details: THP-1 cells, 1 μM compound, 5 ng/ml PMA, 24 hours, vs DMSO
# Method: (§1) The anti-inflammatory effects of the compound according to the invention is evaluated by measuring the secretion of MCP1 (Monocyte chemotactic protein-1) by THP1 monocytes treated for 24 hours with the compounds according to the invention and stimulated simultaneously with PMA (Phorbol 12-myristate 13-acetate, which promotes an inflammatory response in cells and their differentiation into macrophages).
# as §1, with “the compounds” for “the compound”, “invention were” for “invention is”, “by” for “by THP1”, “with” for “with the”, “macrophages). […]” for “macrophages).”
# The treatment medium is recovered and the MCP1 concentration is measured using the ELISA kit <<Human MCP-1 ELISA Set>> (BD OptEIA; 555179) in accordance with the manufacturer's recommendation.
# MCP1 is laid on a plate and is recognized by an anti-MCP1 specific antibody. […] The coloration resulting from enzymatic activity is proportional to the quantity of fixed MCP1 and can be measured by a spectrophotometry method. A range is performed from a point representative of a known concentration and from which the MCP1 concentration of each sample is calculated. […]
compound,measurement,setting,value
"Cc1cc(CCC(=O)c2ccc(Br)cc2)cc(C)c1OC(C)(C)C(=O)O [Compound 3, 2-[2,6-dimethyl-4-[3-[4-bromophenyl]-3-oxo-propyl]phenoxy]-2-methylpropanoic acid]",HDL-cholesterol fraction (distribution of cholesterol in plasma lipoprotein fractions),db/db mouse,significant increase
same,plasma free fatty acids,db/db mouse; vs control,very significantly decreased
same,plasma triglycerides,db/db mouse; vs control,very significantly decreased
same,total plasma cholesterol,db/db mouse; vs control,significantly increased
same,expression of the gene coding for UCP2 in the skeletal muscle,[1]; gastrocnemius skeletal muscle,reduction
same,hepatic expression of the gene coding for PDK4,[1]; hepatic tissue,significant increase
same,MCP1 secreted by monocytes,THP-1 human monocytes,significant reduction
